Measured values published in patent US20260317332A1, “BICYCLIC HETEROCYCLE COMPOUNDS FOR THE TREATMENT OF CANCER” (Hoffmann-La Roche Inc., priority 2023, published 2026).

Legend:
CD73 [1] = biological target: T1, CD73 (Homo sapiens, UniProt P21589); test: Human CD73 Biochemical Assay; details: 0.05 nM recombinant CD73; AMP 5.56 μM final; 10 min at room temperature; LC/MS adenosine readout; read-out: Enzymatic IC50 against human CD73
T1 sequence (P21589 27-574): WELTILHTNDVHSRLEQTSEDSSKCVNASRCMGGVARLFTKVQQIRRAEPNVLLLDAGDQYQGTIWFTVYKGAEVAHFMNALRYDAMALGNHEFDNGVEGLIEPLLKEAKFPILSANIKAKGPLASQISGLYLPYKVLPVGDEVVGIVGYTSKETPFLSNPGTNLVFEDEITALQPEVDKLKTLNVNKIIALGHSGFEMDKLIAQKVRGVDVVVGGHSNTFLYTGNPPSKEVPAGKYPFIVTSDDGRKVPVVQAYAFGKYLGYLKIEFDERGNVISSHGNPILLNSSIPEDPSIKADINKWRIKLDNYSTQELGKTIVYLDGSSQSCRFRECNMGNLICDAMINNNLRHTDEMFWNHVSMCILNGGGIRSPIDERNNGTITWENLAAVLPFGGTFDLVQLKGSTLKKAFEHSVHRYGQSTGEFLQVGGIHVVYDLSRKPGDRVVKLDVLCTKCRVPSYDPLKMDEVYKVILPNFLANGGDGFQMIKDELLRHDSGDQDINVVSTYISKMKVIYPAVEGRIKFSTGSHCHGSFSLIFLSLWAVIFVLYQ
Method: The purpose of this assay is to identify and characterize inhibitors of human CD73 enzymatic activity. Compound serial dilution (1:3) was prepared with Echo 555 liquid handler (Labcyte) into the corresponding wells of a 384-well plate. 10 μL of enzyme working solution (containing 0.05 nM recombinant CD73 protein, 10 mM Tris pH 7.5, 100 mM NaCl, 0.01% BSA, 0.2 mM Octyl glucoside and 1 mM NaH2PO4) was added to the assay plate and incubated with compounds for 15 minutes at room temperature. After adding 15 μL of AMP working solution (Containing 10 mM Tris pH 7.5, 100 mM NaCl, 0.01% BSA, 0.2 mM Octyl glucoside, with 5.56 μM of AMP final concentration) and incubate for 10 min at room temperature. Stop the reaction by adding 75 μL of stop solution (5% TCA in H2O containing 250 nM 13C5-adenosine) to each well for 10 min incubation. After centrifugation, 75 μL of the mixture was transferred to a new 384-well plate for LC/MS analysis.
Samples from the 384-well plates, were loaded onto an autosampler deck, then injected with ADDA-LC-MS/MS. The aqueous mobile phase is 0.1% formic acid in water. The organic mobile phase is 0.1% formic acid in acetonitrile. Flow rate is maintained at 0.8 mL/minute using Shimadzu pumps. The column is ACE 5 Phenyl, 50×2.1 mm. The analysis was performed on a SCIEX triple quadrupole mass spectrometer operating in positive ion mode. The effluent from the HPLC column was directly introduced into the electrospray ionization (ESI). Multiple reaction monitoring (MRM) is used to determine analyte and internal standard (IS) responses. The MRM for adenosine is 268.1/136.1, for 13C5-Adenosine (IS) is 273.2/136.2. The data is calculated using the peak area ratio (PAR) semi-quantitative method.

CD73 [2] = biological target: T1, CD73; test: CD73 Cellular Assay; format: cell-based; set-up: 40 μL of MDA-MB-231 cells (ATCC, HTB-26, breast cancer); host or cells: MDA-MB-231; details: MDA-MB-231 cells; 200 μM AMP working solution; 45 min at 37° C.; malachite readout; read-out: Cellular IC50 against CD73
Method: Compound serial dilution (1:3) was prepared with Echo 555 liquid handler (Labcyte) into the corresponding wells of a 384-well plate. 40 μL of MDA-MB-231 cells (ATCC, HTB-26, breast cancer, final concentration at 20,000 cells/mL) suspended in assay buffer (20 mM HEPES pH 7.4, 137 mM NaCl, 5.4 mM KCl, 1.3 mM CaCl2, 4.2 mM NaHCO3, 1 mg/mL glucose) were added into the corresponding wells of the plate. After incubating with compounds for 30 minutes, 40 μL of AMP working solution (200 μM AMP in assay buffer) was added into each well in the assay plate. The assay plate was then incubated in a 5% CO2 incubator (Thermo Fisher Scientific) at 37° C. for 45 min. After the reaction was completed, 50 μL of the supernatants was collected and transferred into a new 384 well plate. 10 μL of Malachite A was added to each well in the assay plate and incubated for 10 minutes. 10 μL of Malachite B was then added to each corresponding well of the plate and incubated for 30 minutes. Finally the absorbance value was read on the Envision plate reader at […]. Calculation percentage inhibition by using equation {% inhibition=100×[1−(X−MIN)/(MAX−MIN)]} where X equals to the well signal, Max equals signal of neutral control and MIN equals signal of inhibitor control.

| SMILES | IC50 (CD73 [1]) | IC50 (CD73 [2]) |
| --- | --- | --- |
| Cn1nc(O[C@H](c2cc(OCC(F)F)ccn2)C(F)F)c2cc(-c3c[nH]c(=O)[nH]c3=O)nnc21 [Example 7, 5-[3-[(1R)-1-[4-(2,2-difluoroethoxy)-2-pyridyl]-2,2-difluoro-ethoxy]-1-methyl-pyrazolo[3,4-c]pyridazin-5-yl]-1H-pyrimidine-2,4-dione] | 0.08 nM | 0.59 nM |
| Cn1nc(O[C@H](c2ccnc(OCC(F)F)c2)C(F)F)c2cc(-c3n[nH]c(=O)[nH]c3=O)nnc21 [Example 13A, 6-[3-[(1R)-1-[2-(2,2-difluoroethoxy)-4-pyridyl]-2,2-difluoro-ethoxy]-1-methyl-pyrazolo[3,4-c]pyridazin-5-yl]-2H-1,2,4-triazine-3,5-dione] | 0.02 nM | 0.97 nM |
| COCCOc1cc([C@@H](Oc2nn(C)c3nnc(-c4c[nH]c(=O)[nH]c4=O)cc23)C(F)F)ccc1F [Example 15, 5-[3-[(1R)-2,2-difluoro-1-[4-fluoro-3-(2-methoxyethoxy)phenyl]ethoxy]-1-methyl-pyrazolo[3,4-c]pyridazin-5-yl]-1H-pyrimidine-2,4-dione] | 0.07 nM | 0.88 nM |
| Cn1nc(O[C@H](c2cc(OCC#N)ccn2)C(F)F)c2cc(-c3c[nH]c(=O)[nH]c3=O)nnc21 [Example 21, 2-[[2-[(1R)-1-[5-(2,4-dioxo-1H-pyrimidin-5-yl)-1-methyl-pyrazolo[3,4-c]pyridazin-3-yl]oxy-2,2-difluoro-ethyl]-4-pyridyl]oxy]acetonitrile] | 0.09 nM | 0.73 nM |
| C[C@@H](Nc1cc([C@@H](Oc2nn(C)c3nnc(-c4c[nH]c(=O)[nH]c4=O)cc23)C(F)F)ccn1)C(F)(F)F [Example 27, 5-[3-[(1R)-2,2-difluoro-1-[2-[[(1R)-2,2,2-trifluoro-1-methyl-ethyl]amino]-4-pyridyl]ethoxy]-1-methyl-pyrazolo[3,4-c]pyridazin-5-yl]-1H-pyrimidine-2,4-dione] | 0.04 nM | 0.48 nM |
| [2H]C([2H])([2H])C([2H])([2H])Oc1cc([C@@H](Oc2nn(C)c3nnc(-c4c[nH]c(=O)[nH]c4=O)cc23)C(F)F)ccn1 [Example 30, 5-[3-[(1R)-2,2-difluoro-1-[2-(1,1,2,2,2-pentadeuterioethoxy)-4-pyridyl]ethoxy]-1-methyl-pyrazolo[3,4-c]pyridazin-5-yl]-1H-pyrimidine-2,4-dione] | 0.05 nM | 0.6 nM |
| Cn1nc(O[C@H](c2ccnc(N3CCC(F)(F)CC3)c2)C(F)F)c2cc(-c3c[nH]c(=O)[nH]c3=O)nnc21 [Example 31, 5-[3-[(1R)-1-[2-(4,4-difluoro-1-piperidyl)-4-pyridyl]-2,2-difluoro-ethoxy]-1-methyl-pyrazolo[3,4-c]pyridazin-5-yl]-1H-pyrimidine-2,4-dione] | 0.05 nM | 0.55 nM |
| Cn1nc(O[C@H](c2ccnc(NC3CCC(F)(F)CC3)c2)C(F)F)c2cc(-c3c[nH]c(=O)[nH]c3=O)nnc21 [Example 32, 5-[3-[(1R)-1-[2-[(4,4-difluorocyclohexyl)amino]-4-pyridyl]-2,2-difluoro-ethoxy]-1-methyl-pyrazolo[3,4-c]pyridazin-5-yl]-1H-pyrimidine-2,4-dione] | 0.05 nM | 0.38 nM |

The remaining lines, values ahead:

| IC50 (CD73 [1]) | IC50 (CD73 [2]) | SMILES |
| --- | --- | --- |
| 0.11 nM | 0.73 nM | Cn1nc(O[C@H](c2cc(OCC(F)(F)F)c(F)cn2)C(F)F)c2cc(-c3c[nH]c(=O)[nH]c3=O)nnc21 [Example 9A, 5-[3-[(1R)-2,2-difluoro-1-[5-fluoro-4-(2,2,2-trifluoroethoxy)-2-pyridyl]ethoxy]-1-methyl-pyrazolo[3,4-c]pyridazin-5-yl]-1H-pyrimidine-2,4-dione] |
| 0.04 nM | 0.54 nM | Cn1nc(O[C@H](c2ccnc(OCC(C)(F)F)c2)C(F)F)c2cc(-c3c[nH]c(=O)[nH]c3=O)nnc21 [Example 16, 5-[3-[(1R)-1-[2-(2,2-difluoropropoxy)-4-pyridyl]-2,2-difluoro-ethoxy]-1-methyl-pyrazolo[3,4-c]pyridazin-5-yl]-1H-pyrimidine-2,4-dione] |
| 0.06 nM | 0.49 nM | CCOc1ccnc([C@@H](Oc2nn(C)c3nnc(-c4c[nH]c(=O)[nH]c4=O)cc23)C(F)F)c1 [Example 20, 5-[3-[(1R)-1-(4-ethoxy-2-pyridyl)-2,2-difluoro-ethoxy]-1-methyl-pyrazolo[3,4-c]pyridazin-5-yl]-1H-pyrimidine-2,4-dione] |
| 0.08 nM | 0.74 nM | Cn1nc(O[C@H](c2cc(OCC3(C(F)(F)F)CC3)ccn2)C(F)F)c2cc(-c3c[nH]c(=O)[nH]c3=O)nnc21 [Example 23, 5-[3-[(1R)-2,2-difluoro-1-[4-[[1-(trifluoromethyl)cyclopropyl]methoxy]-2-pyridyl]ethoxy]-1-methyl-pyrazolo[3,4-c]pyridazin-5-yl]-1H-pyrimidine-2,4-dione] |
